Assay results published in paper PMC8126888 (RSC Medicinal Chemistry, 2020).
Read-outs that look alike come from different tables or passages of the source.

How the values were obtained:
[1] = tested on: Leishmania infantum (MHOM/MA/67/ITMAP-263) intracellular amastigotes in THP-1; experiment: microbe, parasite or virus in culture; conditions: THP-1, 120 h, read-out: Intracellular activity pIC50 L. inf. in THP-1 (converted)
[2] = tested on: primary peritoneal mouse macrophages (PMM); conditions: PMM IC50 / L. infantum IC50
in vitro [3] = conditions: Swiss, mouse
in vitro [4] = conditions: human
[5] = tested on: Leishmania infantum MHOM/MA(BE)/67/ITMAP263 intracellular amastigotes; experiment: microbe, parasite or virus in culture; conditions: Macrophage, in Mus musculus
[6] = tested on: Trypanosoma cruzi, Tulahuen CL2, beta-galactosidase strain; experiment: microbe, parasite or virus in culture; conditions: MRC5, read-out: T. cruzi Tulahuen C4 (LacZ) IC50
in vitro [7] = conditions: human, microsomes, pH 7.4, HLM CLint, human liver microsomes
in vitro [8] = conditions: mouse, microsomes, pH 7.4, MLM CLint, mouse liver microsomes
physchem = conditions: HPLC, Ascentis Express RP Amide column, pH 7.4, eLogD
[9] = read-out: L. Inf. pIC50, from L. infantum intracellular amastigote IC50 (converted)
[10] = read-out: L. infantum MHOM/MA(BE)/67/ITMAP263 intracellular amastigotes IC50

Compound | IC50 [1] [µM] | SI (vs PMM) [2] | IC50 (in vitro [3]) [µM] | CC50 at 3 days (in vitro [4]) [µM] | IC50 [5, 9] [µM] | IC50 [5, 10] [µM] | IC50 [6] [µM] | microsomal CLint at 0.5 μM (in vitro [7]) [µL/min/mg] | microsomal CLint at 0.5 μM (in vitro [8]) [µL/min/mg] | chromatographic logD (physchem)
C[C@@H]1[C@H](O)[C@@H](C)/C=C/C=C/C=C/C=C/C=C/C=C/C=C/[C@H](O[C@@H]2O[C@H](C)[C@@H](O)[C@H](N)[C@@H]2O)C[C@@H]2O[C@](O)(C[C@@H](O)C[C@@H](O)[C@H](O)CC[C@@H](O)C[C@@H](O)CC(=O)O[C@H]1C)C[C@H](O)[C@H]2C(=O)O [Amphotericin B, reference compound] | 1.95 | – | – | – | – | – | – | – | – | –
CCC(Cc1ccccc1)S(=O)(=O)c1nc(C)cc(C)c1C#N (centres unmarked) [DNDI0003297459] | – | 3 | > 64 | > 64 | 20.4 | 20.2 | 45.2 | – | – | –
CCCCC(=O)Nc1cccnc1S(=O)(=O)CCOc1ccccc1 [DNDI0003363560] | – | 1 | 32 | 29.7 | 32.4 | 32.5 | 14.7 | – | – | –
CCN(Cc1ccccc1)S(=O)(=O)c1cc(F)ccc1F [DNDI0003364474] | – | 2 | > 64 | 45.2 | 33.9 | 33.9 | 30.1 | 205 | 705 | 4.2
CONS(=O)(=O)c1cc(Cl)ccc1OC [DNDI0003364475] | – | 1 | > 64 | > 64 | > 64 | > 64 | > 64 | – | – | –
CCN(Cc1ccccc1)S(=O)(=O)c1ccccc1Br [DNDI0003365405] | – | 2 | > 64 | > 64 | 33.9 | 33.9 | 13.8 | 88 | 235 | 4.2
COCCN(Cc1ccccc1)S(=O)(=O)c1cc(OC)ccc1OC [DNDI0003365566] | – | 31 | > 64 | 39.4 | 2.09 | 2.07 | 32.8 | 253 | – | –
CCN(Cc1ccc(F)cc1)S(=O)(=O)c1cc(Cl)ccc1OC [DNDI0003366065] | – | 3 | > 64 | 59.5 | 21.9 | 22 | 6.88 | 352 | – | 4.4
COc1ccc(OC)c(S(=O)(=O)N(C)Cc2ccc(F)cc2)c1 [DNDI0003366066] | – | 5 | > 64 | > 64 | 11.7 | 11.7 | 26.7 | 414 | – | –
COc1ccc(OC)c(S(=O)(=O)N(CCO)Cc2ccccc2)c1 [DNDI0003366067] | – | 1 | > 64 | > 64 | 52.5 | 52.5 | 51.2 | 161 | – | 2.9
COc1ccc(OC)c(S(=O)(=O)N(Cc2ccc(F)cc2)Cc2ccc(F)cc2)c1 [DNDI0003366069] | – | 119 | > 64 | > 64 | 0.537 | 0.54 | 6.35 | – | – | –
CCN(Cc1ccccc1)S(=O)(=O)c1cc(F)ccc1OC [DNDI0003366070] | – | 6 | > 64 | 49.6 | 11 | 11 | 28.4 | 383 | – | 3.9
COc1ccc(F)cc1S(=O)(=O)N(Cc1ccccc1)Cc1ccccc1 [DNDI0003366071] | – | 47 | > 64 | > 64 | 1.38 | 1.37 | 6.82 | 955 | – | –
O=S(=O)(c1ccccc1OC(F)(F)F)N(Cc1ccccc1)Cc1ccccc1 [DNDI0003366074] | – | 30 | 32 | > 64 | 1.07 | 1.08 | 6.3 | 93 | 689 | –
COc1ccc(Cl)cc1S(=O)(=O)NCCN(C)C [DNDI0003366089] | – | 1 | > 64 | > 64 | > 64 | > 64 | > 64 | 33 | – | 2.1
COc1ccc(Cl)cc1S(=O)(=O)N(CCN(C)C)Cc1ccccc1 [DNDI0003366090] | – | 7 | 45.2 | 26.7 | 6.17 | 6.14 | 32.7 | 1190 | 120 | 4
CC(=O)Nc1ccc(S(=O)(=O)N(CCN(C)C)Cc2ccccc2)cc1 [DNDI0003366091] | – | 1 | > 64 | > 64 | > 64 | > 64 | > 64 | 95 | 42 | 3
CC(=O)Nc1ccc(S(=O)(=O)NCc2ccccc2)cc1 [DNDI0003366092] | – | 1 | > 64 | > 64 | > 64 | > 64 | > 64 | – | – | –
COc1ccc(OC)c(S(=O)(=O)N(Cc2ccccc2)C2CCNCC2)c1 [DNDI0003366094] | – | 2 | 45.2 | 42.2 | 27.5 | 27.8 | 28.9 | 100 | 23 | 3.1
CCN(Cc1ccccn1)S(=O)(=O)c1cc(OC)ccc1OC [DNDI0003366095] | – | 1 | > 64 | > 64 | 43.7 | 44.1 | > 64 | 118 | 2190 | 2.7
COCCN(Cc1ccccc1)S(=O)(=O)c1ccc(NC(C)=O)cc1 [DNDI0003366100] | – | 1 | > 64 | > 64 | > 64 | > 64 | > 64 | 424 | 29 | 3.2
COCCN(C(C)=O)c1ccc(S(=O)(=O)N(CCOC)Cc2ccccc2)cc1 [DNDI0003366101] | – | 1 | > 64 | > 64 | > 64 | > 64 | > 64 | 73 | 227 | 3.1
